Measurements from PMC11233931, “Remodeling tumor‐associated macrophage for anti‐cancer effects by rational design of irreversible inhibition of mitogen‐activated protein kinase‐activated protein kinase 2” (MedComm, 2024).

Key:
Assay in all cases: Eurofins kinase selectivity profile against 380 other human recombinant kinases (Table S2)
Type in all cases: biochemical
[1] = target: T1, 380 human recombinant protein kinases (Homo sapiens, UniProt O43781); conditions: DYRK3(h), read-out: Inhibition rate
T1 construct: purchased Eurofins (Celle Lévescault)
T1 sequence (O43781 1-588): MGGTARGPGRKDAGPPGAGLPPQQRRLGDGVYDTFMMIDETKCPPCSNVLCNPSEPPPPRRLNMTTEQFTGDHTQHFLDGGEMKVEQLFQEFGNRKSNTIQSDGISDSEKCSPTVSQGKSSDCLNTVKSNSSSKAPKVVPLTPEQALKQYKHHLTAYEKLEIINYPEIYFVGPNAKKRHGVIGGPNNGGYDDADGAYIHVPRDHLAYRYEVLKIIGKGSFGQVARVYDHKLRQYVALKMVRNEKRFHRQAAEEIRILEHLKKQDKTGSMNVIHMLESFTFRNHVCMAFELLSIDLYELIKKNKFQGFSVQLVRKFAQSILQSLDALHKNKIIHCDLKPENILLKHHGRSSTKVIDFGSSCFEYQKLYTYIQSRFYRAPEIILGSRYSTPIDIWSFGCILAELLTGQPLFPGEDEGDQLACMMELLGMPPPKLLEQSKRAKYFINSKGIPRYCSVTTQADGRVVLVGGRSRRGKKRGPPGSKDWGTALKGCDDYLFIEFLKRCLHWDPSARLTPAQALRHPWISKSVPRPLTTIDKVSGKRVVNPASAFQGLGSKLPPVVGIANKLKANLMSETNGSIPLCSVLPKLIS
How it was run: (§1)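 Commercial selectivity screen of the test compound against a panel of 380 human recombinant protein kinases, run by an outside contractor at several compound concentrations to check whether its potency was specific for MK2.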

[2] = target: T2, 380 human recombinant protein kinases (Homo sapiens, UniProt P48736); conditions: PI3 Kinase (p120γ)(h), read-out: Inhibition rate (%)
T2 construct: purchased Eurofins (Celle Lévescault)
How it was run: as §1

[3] = target: T3, 380 human recombinant protein kinases (Homo sapiens, UniProt Q8IZX4); conditions: TAF1L(h), read-out: Inhibition rate (%)
T3 construct: purchased Eurofins (Celle Lévescault)
How it was run: as §1

[4] = target: T4, 380 human recombinant protein kinases (Homo sapiens, UniProt Q8TDX7); conditions: NEK7(h), read-out: Inhibition rate
T4 construct: purchased Eurofins (Celle Lévescault)
How it was run: as §1

[5] = target: T5, 380 human recombinant protein kinases (Homo sapiens, UniProt P29317); conditions: EphA2(h), read-out: Inhibition rate
T5 construct: purchased Eurofins (Celle Lévescault)
How it was run: as §1

[6] = target: T6, 380 human recombinant protein kinases (Homo sapiens, UniProt Q96RG2); conditions: PASK(h), read-out: Inhibition rate
T6 construct: purchased Eurofins (Celle Lévescault)
How it was run: as §1

[7] = target: T7, 380 human recombinant protein kinases (Homo sapiens, UniProt Q9P286); conditions: PAK5(h), read-out: Inhibition rate
T7 construct: purchased Eurofins (Celle Lévescault)
How it was run: as §1

[8] = target: T8, 380 human recombinant protein kinases (Homo sapiens, UniProt O00329); conditions: PI3 Kinase (p110δ/p85α)(h), read-out: Inhibition rate (%)
T8 construct: purchased Eurofins (Celle Lévescault)
T8 sequence (O00329 1-1044): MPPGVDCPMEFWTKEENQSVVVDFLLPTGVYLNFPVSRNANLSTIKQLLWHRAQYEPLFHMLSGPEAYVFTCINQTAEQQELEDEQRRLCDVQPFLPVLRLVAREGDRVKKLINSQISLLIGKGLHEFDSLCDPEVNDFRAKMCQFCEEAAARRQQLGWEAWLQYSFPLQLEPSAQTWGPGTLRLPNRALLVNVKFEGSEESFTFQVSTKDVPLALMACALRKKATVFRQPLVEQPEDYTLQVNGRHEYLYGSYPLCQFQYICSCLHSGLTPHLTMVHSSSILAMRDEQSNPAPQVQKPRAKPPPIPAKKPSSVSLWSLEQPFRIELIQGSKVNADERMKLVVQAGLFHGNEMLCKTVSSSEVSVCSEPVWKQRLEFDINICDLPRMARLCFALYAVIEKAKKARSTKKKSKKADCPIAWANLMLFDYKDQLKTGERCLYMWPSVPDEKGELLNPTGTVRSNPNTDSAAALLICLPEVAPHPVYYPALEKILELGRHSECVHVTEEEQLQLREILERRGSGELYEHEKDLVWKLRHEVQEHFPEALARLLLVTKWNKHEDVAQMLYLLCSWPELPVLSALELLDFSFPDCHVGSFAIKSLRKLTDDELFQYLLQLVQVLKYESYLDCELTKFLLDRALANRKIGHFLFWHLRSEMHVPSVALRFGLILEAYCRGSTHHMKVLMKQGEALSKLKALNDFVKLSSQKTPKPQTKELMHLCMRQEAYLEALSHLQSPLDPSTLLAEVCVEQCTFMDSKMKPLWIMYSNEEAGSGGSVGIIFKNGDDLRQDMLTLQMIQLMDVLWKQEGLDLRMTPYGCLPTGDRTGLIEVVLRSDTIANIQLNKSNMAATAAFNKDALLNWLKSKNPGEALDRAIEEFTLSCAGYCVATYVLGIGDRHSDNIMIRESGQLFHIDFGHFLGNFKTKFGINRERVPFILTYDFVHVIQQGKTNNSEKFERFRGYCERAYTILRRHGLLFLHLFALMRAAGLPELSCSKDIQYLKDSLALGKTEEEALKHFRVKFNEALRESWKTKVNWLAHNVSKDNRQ
How it was run: as §1

[9] = target: T9, 380 human recombinant protein kinases (Homo sapiens, UniProt Q13177); conditions: PAK2(h), read-out: Inhibition rate
T9 construct: purchased Eurofins (Celle Lévescault)
How it was run: as §1

T5 sequence (P29317 24-976): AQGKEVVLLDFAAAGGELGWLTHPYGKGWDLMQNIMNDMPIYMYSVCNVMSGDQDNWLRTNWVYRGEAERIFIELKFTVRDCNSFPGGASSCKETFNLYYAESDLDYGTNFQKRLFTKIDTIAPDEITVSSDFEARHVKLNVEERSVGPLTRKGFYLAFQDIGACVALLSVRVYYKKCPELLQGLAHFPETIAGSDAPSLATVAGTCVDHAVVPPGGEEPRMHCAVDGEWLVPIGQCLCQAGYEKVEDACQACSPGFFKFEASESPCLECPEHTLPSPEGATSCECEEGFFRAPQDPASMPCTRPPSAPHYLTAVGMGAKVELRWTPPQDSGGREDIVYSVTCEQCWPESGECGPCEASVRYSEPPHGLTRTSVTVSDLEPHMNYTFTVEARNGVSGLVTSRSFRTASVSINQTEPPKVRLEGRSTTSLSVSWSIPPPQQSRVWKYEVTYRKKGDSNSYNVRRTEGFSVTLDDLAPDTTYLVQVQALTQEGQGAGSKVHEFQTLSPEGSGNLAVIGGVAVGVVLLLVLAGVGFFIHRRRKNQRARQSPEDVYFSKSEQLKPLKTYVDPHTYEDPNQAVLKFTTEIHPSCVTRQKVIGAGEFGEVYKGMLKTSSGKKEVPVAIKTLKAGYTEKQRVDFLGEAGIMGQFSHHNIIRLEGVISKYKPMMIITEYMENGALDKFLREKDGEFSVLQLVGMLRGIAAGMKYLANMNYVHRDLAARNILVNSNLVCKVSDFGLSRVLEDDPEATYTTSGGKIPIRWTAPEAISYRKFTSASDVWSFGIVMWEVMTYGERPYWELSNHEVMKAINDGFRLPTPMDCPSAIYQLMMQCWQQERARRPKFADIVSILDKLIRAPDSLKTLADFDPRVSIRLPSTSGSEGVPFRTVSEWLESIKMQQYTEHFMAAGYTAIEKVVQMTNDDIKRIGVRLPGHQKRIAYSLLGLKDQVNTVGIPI
T3 sequence (Q8IZX4 whole entry): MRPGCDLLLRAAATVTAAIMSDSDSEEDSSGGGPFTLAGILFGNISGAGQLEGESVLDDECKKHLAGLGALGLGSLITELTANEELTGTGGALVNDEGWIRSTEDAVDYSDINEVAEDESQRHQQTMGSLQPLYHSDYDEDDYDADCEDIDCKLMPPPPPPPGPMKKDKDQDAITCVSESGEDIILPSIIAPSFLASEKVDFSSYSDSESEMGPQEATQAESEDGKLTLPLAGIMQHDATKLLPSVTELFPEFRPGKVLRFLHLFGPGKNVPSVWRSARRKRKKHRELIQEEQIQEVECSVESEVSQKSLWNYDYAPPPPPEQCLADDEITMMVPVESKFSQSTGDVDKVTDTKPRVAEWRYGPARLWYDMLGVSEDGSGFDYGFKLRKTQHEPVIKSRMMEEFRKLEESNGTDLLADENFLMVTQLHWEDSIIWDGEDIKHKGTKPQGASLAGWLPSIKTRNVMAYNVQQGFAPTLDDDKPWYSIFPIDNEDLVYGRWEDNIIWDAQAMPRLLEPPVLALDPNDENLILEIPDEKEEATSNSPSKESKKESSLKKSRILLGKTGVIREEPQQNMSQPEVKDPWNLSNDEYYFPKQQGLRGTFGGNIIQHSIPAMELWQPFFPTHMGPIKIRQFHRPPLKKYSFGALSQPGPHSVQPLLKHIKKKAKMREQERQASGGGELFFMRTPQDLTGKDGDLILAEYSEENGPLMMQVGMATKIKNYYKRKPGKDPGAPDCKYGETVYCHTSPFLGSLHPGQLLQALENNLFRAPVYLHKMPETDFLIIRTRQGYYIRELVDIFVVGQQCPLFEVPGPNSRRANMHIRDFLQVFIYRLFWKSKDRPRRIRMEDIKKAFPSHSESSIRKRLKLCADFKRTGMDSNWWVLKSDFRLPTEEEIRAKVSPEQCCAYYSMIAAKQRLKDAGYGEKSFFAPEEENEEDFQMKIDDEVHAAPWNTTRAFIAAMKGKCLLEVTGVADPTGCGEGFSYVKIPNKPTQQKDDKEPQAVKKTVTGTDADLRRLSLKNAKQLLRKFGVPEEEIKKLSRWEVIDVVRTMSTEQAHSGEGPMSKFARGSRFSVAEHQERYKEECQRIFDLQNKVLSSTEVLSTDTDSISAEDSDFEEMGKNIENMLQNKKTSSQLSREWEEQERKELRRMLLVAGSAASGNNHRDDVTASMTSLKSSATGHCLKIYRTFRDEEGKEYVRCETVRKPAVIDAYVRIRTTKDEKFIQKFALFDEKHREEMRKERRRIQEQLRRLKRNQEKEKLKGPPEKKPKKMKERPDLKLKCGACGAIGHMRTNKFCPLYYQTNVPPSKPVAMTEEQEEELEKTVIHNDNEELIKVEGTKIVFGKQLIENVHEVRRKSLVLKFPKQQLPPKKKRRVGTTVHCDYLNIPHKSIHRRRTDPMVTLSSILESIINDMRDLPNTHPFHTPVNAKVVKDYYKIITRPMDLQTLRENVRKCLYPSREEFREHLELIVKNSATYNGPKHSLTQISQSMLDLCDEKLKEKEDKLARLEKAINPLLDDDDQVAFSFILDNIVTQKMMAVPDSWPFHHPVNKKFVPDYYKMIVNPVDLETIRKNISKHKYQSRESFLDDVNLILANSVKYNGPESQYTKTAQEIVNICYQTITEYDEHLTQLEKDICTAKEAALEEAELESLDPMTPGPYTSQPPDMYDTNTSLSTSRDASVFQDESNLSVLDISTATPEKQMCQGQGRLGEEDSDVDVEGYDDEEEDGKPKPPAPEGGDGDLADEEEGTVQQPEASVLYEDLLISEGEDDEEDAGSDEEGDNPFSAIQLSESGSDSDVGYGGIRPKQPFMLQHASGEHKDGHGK
T4 sequence (Q8TDX7 whole entry): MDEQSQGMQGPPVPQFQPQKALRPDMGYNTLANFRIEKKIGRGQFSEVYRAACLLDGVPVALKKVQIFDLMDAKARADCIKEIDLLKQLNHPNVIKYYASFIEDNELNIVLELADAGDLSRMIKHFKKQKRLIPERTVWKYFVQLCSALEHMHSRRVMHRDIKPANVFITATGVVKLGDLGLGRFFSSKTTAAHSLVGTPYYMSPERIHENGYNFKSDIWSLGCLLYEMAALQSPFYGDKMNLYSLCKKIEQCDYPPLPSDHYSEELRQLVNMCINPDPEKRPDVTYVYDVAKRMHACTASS
T6 sequence (Q96RG2 whole entry): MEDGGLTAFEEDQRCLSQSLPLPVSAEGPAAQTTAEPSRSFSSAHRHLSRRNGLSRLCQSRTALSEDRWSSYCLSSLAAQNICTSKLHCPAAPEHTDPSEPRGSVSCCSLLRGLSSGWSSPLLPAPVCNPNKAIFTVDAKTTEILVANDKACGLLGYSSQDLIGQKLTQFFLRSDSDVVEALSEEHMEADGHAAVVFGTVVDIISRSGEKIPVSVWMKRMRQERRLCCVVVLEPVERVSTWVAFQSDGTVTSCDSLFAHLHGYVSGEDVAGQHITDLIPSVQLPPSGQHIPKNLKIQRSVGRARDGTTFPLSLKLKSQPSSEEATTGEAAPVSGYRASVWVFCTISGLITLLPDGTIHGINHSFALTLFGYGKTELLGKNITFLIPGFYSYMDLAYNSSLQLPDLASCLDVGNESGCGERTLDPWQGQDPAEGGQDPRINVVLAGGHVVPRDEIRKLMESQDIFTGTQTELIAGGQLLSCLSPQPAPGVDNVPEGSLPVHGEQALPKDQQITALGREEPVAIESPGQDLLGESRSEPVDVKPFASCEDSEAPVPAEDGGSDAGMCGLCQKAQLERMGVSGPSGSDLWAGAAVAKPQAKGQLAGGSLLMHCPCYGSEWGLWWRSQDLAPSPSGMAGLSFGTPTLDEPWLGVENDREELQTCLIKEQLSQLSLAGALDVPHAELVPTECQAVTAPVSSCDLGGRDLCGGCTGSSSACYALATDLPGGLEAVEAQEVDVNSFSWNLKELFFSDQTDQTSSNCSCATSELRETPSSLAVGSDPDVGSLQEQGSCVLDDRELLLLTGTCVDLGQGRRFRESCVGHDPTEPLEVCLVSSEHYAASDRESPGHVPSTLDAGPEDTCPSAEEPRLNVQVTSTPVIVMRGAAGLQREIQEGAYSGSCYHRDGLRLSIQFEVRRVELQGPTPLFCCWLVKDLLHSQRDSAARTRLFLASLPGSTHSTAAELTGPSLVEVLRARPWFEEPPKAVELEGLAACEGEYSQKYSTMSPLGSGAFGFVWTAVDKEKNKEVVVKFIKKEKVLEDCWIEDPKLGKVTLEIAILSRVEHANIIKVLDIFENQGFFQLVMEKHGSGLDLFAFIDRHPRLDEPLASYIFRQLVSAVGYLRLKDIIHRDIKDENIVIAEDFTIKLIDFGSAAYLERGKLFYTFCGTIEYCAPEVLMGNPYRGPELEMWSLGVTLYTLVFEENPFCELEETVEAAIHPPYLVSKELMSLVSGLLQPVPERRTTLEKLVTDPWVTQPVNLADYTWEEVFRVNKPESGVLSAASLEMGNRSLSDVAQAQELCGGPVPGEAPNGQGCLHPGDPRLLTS
T7 sequence (Q9P286 whole entry): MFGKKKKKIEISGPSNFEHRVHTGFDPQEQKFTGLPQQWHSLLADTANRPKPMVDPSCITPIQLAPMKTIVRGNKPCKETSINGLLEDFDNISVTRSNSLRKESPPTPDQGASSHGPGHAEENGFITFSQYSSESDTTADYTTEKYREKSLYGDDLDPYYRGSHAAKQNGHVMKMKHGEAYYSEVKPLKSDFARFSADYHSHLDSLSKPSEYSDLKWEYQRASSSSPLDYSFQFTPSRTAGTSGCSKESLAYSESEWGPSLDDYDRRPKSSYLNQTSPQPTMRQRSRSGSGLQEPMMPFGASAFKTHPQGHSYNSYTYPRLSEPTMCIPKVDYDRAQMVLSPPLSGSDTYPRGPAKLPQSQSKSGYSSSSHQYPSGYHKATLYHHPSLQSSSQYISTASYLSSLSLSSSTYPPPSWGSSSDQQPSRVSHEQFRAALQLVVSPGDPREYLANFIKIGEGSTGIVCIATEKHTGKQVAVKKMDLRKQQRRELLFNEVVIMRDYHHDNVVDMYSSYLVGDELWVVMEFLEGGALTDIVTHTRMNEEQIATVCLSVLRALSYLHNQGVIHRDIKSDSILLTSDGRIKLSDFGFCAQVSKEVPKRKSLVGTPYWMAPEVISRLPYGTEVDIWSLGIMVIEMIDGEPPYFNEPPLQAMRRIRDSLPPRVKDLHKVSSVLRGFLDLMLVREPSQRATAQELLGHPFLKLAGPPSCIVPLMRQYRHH

With `C=CC(=O)Nc1cc(-c2cc(-c3cc4c([nH]3)CCNC4=O)ccn2)ccc1OC(F)(F)F` [compound 11] the inhibition at 0.01 µM ([1]; 10 nM) was 34%, the inhibition at 0.1 µM ([1]; 100 nM) was 83% and the inhibition at 1 µM ([1]; 1000 nM) was 95%. It also gave an inhibition at 0.01 µM ([2]; 10 nM) of 1%, an inhibition at 0.1 µM ([2]; 100 nM) of -1% and an inhibition at 1 µM ([2]; 1000 nM) of 3%. For the same compound, the inhibition at 0.01 µM ([3]; 10 nM) was 51%, the inhibition at 0.1 µM ([3]; 100 nM) was 74% and the inhibition at 1 µM ([3]; 1000 nM) was 80%. It also gave an inhibition at 0.01 µM ([4]; 10 nM) of -5%, an inhibition at 0.1 µM ([4]; 100 nM) of -2% and an inhibition at 1 µM ([4]; 1000 nM) of 3%. It also gave an inhibition at 0.01 µM ([5]; 10 nM) of 0%, an inhibition at 0.1 µM ([5]; 100 nM) of 3% and an inhibition at 1 µM ([5]; 1000 nM) of -2%. It also gave an inhibition at 0.01 µM ([6]; 10 nM) of 13%, an inhibition at 0.1 µM ([6]; 100 nM) of 4% and an inhibition at 1 µM ([6]; 1000 nM) of 12%. For the same compound, the inhibition at 0.01 µM ([7]; 10 nM) was -2%, the inhibition at 0.1 µM ([7]; 100 nM) was -2% and the inhibition at 1 µM ([7]; 1000 nM) was -2%. It also gave an inhibition at 0.01 µM ([8]; 10 nM) of -3%, an inhibition at 0.1 µM ([8]; 100 nM) of -1% and an inhibition at 1 µM ([8]; 1000 nM) of 2%. It also gave an inhibition at 0.01 µM ([9]; 10 nM) of -3%, an inhibition at 0.1 µM ([9]; 100 nM) of -5% and an inhibition at 1 µM ([9]; 1000 nM) of -3%.
